According to PMC12188386, “Selective CBP/EP300 Bromodomain Inhibitors: Novel Epigenetic Tools to Counter TNF-α-Driven Inflammation” (JACS Au, 2025):

Tests used:
[1] = target: CBP (Homo sapiens, UniProt Q92793); test: commercial Bromoscan assay; format: binding
Experimental: was used as the calibration curve. To obtain saturated solutions of the compounds of interest, in duplicates 4.4 µL of a 10 or 5 mM stock in DMSO was added to 436 µL Buffer (PBS, pH = 7.4), to give a final concentration of 100 or 50 µM. Samples were incubated on a shaker (500 rpm) at 37°C for 90 minutes and then filtered (Millex-GV 13 mm, 0.22 µm). 304 µL of the filtrate was mixed with 76 µL of acetonitrile on a dilution plate, from which 350 µL was transferred to a UV-plate and UV-absorption was read using a SpectraMax M5 (Molecular devices). The absorbance was blank-corrected and compared to the calibration curve to […]
solubility. […]
lower solubility (2) compounds respectively in a 12.5 w/v% CAPTISOL® solution in water. […] Based on the known density of 12.5 % CAPTISOL® solution (d = 1.05755 g/mL at 25 °C), the precise weight of the resulting solution and so the required amount of water by weight was calculated. […] In duplicates, aliquots of the filtrates were taken and diluted with blank 12.5 % CAPTISOL® water solution in either a 1:14 (higher sol. compounds) or 1:7 (lower sol. compounds) ratio, 350 µL was transferred to a 96-Well Plate (Greiner, UV-star) then UV absorption (240-400 nm, 10 nm steps) was measured using a SpectraMax M5 (Molecular devices). […] The calculated concentrations are available in Table S4. […]
The bromodomain concentration in the eluates was measured by qPCR. […]

[2] = tested on: TNF-α-induced IL-8 secretion from THP-1 cells; test: cytokine protein measurement (LEGENDPlex); format: cell-based, human; details: 10 ng/mL TNF-α, 1 μM compound
Experimental: For cytokine expression determination, 5x10^5 THP-1 cells were plated on 12 well plates the day prior to treatment with 10 ng/mL recombinant human TNF -α (aa 77-233) protein (R&D systems, 10291 -TA) and compounds at a final concentration of 0.1 % DMSO. In all cases, total […]
Cytokine protein measurements
THP-1 cells were plated and treated as for the quantitative RT -PCR, then the cell culture medium was harvested by pelleting the cells (300g, 3min) and taking the supernatant .
Cytokine protein concentrations were determined using the LEGENDPlexTM Human Inflammation Panel 1 (BioLegend) assay with 25 µL of culture medium following the manufacturer’s instructi ns. amp es were ana zed f w c t metr n an rtessa Biosciences), and data was analyzed using LEGENDPlex software (BioLegend).

[3] = tested on: MRC5 cells; test: viability assay (resazurin); format: cell-based; details: three-day treatment, concentration resulting in 70 % viability
Experimental: MRC5 (2x10^3 cells/well) or THP-1 (8x10^3 cells/well) cells were plated onto 96 well plates and treated with compounds at a final DMSO concentration of 0.5 % (MRC5) or 0.1 % (THP-1).
After 3 days of treatment, resazurin (Acros Organics) was added at a final concentration of 86 μ and incu ated for 2h15 (MRC5) or 3 h (THP-1). Fluorescence (ex. 560 nm, em. 590 nm) was read using a SpectraMax M5 (Molecular devices). GI30 values were calculated as the compound concentration resulting in 70 % viability compared to DMSO treated controls using a nonlinear regression fit using GraphPad Prism with the following equation: (Y=Bottom + (100-Bottom)/(1+(IC50/X)^HillSlope)). […]
After 1.5 h, mice were injected with 10 µL of the prepared CAPTISOL […]
foodpad and also intraperitoneally (for i.p. injection, the 10 µL of CAPTISOL solution was diluted to a final volume of 100 µL using PBS). Organs were collected 5 h after TNF-α […]
LEGENDPlexTM assays (Mouse Pro-inflammatory Chemokine Panel and Mouse Inflammation Panel; Biolegend) were performed to monitor cytokine/chemokine expression. Briefly, popliteal LNs were collected and carefully disrupted in […] ice-cold phosphate buffer, minimizing cell rupture. The suspension was centrifuged at 1,500 rpm for 5 min, and the […]

CBP, sequence (Q92793 1085-1192 limits assumed): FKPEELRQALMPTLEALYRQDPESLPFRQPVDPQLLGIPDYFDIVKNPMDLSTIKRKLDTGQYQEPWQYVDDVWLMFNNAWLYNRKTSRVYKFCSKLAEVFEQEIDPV

Row | SMILES | Kd [1] [µM] | TNF-α-induced IL-8 protein secretion [2] | GI30 [3] [µM]
1 | Cc1cc2c(NC(=O)c3cc(NC(=O)c4ccco4)cc(-c4ccn(C)n4)c3)cccc2nn1 [Compound 2] | 0.009 | significantly reducing its TNF-α-induced secretion | > 10
2 | Cc1cc2c(NC(=O)c3cc(NC(=O)[C@H]4CCCO4)cc(-c4ccn(C)n4)c3)cccc2nn1 [Compound 5] |  |  | > 10
